Source: patent publication US6087361A, “Aryl-imidazolines and aryl-imidazoles useful as α-2 adrenergic agonists without cardiovascular side effects” (Allergan Sales, Inc., priority 1997, dated 2000)
Where two headings read alike, the source gives them in different places.

What was measured:
[1] = molecular target: T1, rat α2B (Rattus norvegicus, UniProt P19328); assay: Receptor binding, [3H]rauwolscine, CHO-RNG cells expressing rat α2B
T1 construct: expressed in transfected cells; host or cells: CHO cells (CHO-RNG)
T1 sequence (P19328 1-453): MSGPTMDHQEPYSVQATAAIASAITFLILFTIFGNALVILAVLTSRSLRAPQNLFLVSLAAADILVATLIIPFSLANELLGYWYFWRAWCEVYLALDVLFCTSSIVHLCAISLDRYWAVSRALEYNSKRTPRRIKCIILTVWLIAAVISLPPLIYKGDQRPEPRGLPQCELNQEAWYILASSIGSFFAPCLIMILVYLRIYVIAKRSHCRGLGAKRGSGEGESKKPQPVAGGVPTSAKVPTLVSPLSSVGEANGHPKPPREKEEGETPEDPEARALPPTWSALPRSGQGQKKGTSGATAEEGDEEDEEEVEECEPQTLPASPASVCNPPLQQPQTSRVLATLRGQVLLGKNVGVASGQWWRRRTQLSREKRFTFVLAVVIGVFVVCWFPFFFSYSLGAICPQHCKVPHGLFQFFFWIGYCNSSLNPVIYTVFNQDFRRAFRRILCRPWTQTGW
Experimental: (§1) Cell preparation: Chinese hamster ovary (CHO) cells expressing the human α2A and human α2C (CHO-C10 and CHO-C4 respectively) receptors and CHO cells (CHO-RNG) expressing the rat α2B, adrenoceptor were grown to near confluence in Dulbecco's modified Eagle's medium supplemented with 10% fetal bovine serum using standard cell culture methods. Cells were harvested by scraping and placed into cold buffer of the following composition: 50 mM Tris-HCl, 5 mM EDTA, pH 7.4). […] The pellet fraction was washed (resuspended in Tris-HCl, pH 8 buffer and centrifuged for 15-20 minutes at 49,000× g) 2 times and stored at -100° until binding assay.
(§2) Binding Studies: The radioligands [^3 H]rauwolscine (specific activity 80 Ci/mmol) and [^3 H]prazosin (specific activity 76 Ci/mmol) were obtained from New England Nuclear, Boston, Mass. Frozen membrane pellet was resuspended in 25 mM glycine/glycine, pH 7.5 and incubated with radioligand under the following conditions: CHO-C10, CHO-RNG, CHO-C4-[^3 H]rauwolscine, 22° C., 30 minutes; RKC-[^3 H]rauwolscine, 0° C., 120 minutes; and, HCC-[^3 H]prazosin, 22° C., 30 minutes in a final volume of 500 ul. At the end of the incubation period, the samples were filtered through glass filters (Whatman GF/B) in a 96 well cell harvester and rapidly washed four times with 4 mL of iced-cold 50 mM Tris-HCl buffer. The filters were then oven dried and transferred to scintillation vials containing 10 mL of Beckman's Ready Protein® scintillation cocktail for counting. […] Protein concentrations were determined with a protein assay kit from Bio Rad. Binding isotherms, equilibrium dissociation and affinity constants were analyzed and determined by the non-linear least squares curve fitting programs EBDA (BioSoft) or AccuFit Competition/Saturation by Beckman.
Cell Preparation: Chinese hamster ovary (CHO) cells expressing the human α2A (CHO-C10) and the rate α2B (CHO-RNG) […] were grown to near confluence in Dulbecco's modified Eagle's medium supplemented with 10% fetal bovine serum using standard cell culture methods. Cells were harvested by scraping and placed into cold buffer of the following composition: 50 mM Tris-HCl, 5 mM EDTA, pH 7.4). […] The pellet fraction was washed (resuspended in Tris-HCl, pH 8 buffer and centrifuged for 15-20 minutes at 49,000× g) 2 times and stored at […] until binding assay.
(§3) The radioligands [^3 H] rauwolscine (specific activity 80 Ci/mmol) and [^3 H] prazosin (specific activity 76 Ci/mmol) were obtained from New England Nuclear, Boston, Mass. Frozen membrane pellet was resuspended in 25 mM glycine/glycine, pH 7.4 and incubated with radioligand under the following conditions: CHO-C10, CHO-RNG, CHO-C4-[^3 H]rauwolscine, 22° C., 30 min.; and, HCC-[^3 H]prazowsin, 22° C., 30 minutes in a final volume of 500 ul. At the end of the incubation period, the samples were filtered through glass fiber filters (Whatman GF/B) in a 96 well cell harvester and rapidly washed four times which 4 mL of iced-cold 50 mM Tris-CHI buffer. The filters were then oven dried and transferred to scintillation vials containing 5 mL of Beckman's Ready Protein® scintillation cocktail for counting. […] Protein concentrations were determined with a protein assay kit from Bio lad. Binding isotherms, equilibrium dissociation and affinity constants were analyzed and determined by the non-linear least squares curve fitting programs AccuFit Competition/Saturation by Beckman.
(§4) Representative compounds of the present invention were tested according to the procedures given above. […] The receptor binding studies and K1 are measures of the affinity of a compound for a particular receptor.

[2] = molecular target: T2, human α2C (Homo sapiens, UniProt P18825); assay: Receptor binding, [3H]rauwolscine, CHO-C4 cells expressing human α2C; conditions: CHO-C4, 22° C., 30 min
T2 construct: expressed in transfected cells; host or cells: CHO cells (CHO-C4)
T2 sequence (P18825 1-462): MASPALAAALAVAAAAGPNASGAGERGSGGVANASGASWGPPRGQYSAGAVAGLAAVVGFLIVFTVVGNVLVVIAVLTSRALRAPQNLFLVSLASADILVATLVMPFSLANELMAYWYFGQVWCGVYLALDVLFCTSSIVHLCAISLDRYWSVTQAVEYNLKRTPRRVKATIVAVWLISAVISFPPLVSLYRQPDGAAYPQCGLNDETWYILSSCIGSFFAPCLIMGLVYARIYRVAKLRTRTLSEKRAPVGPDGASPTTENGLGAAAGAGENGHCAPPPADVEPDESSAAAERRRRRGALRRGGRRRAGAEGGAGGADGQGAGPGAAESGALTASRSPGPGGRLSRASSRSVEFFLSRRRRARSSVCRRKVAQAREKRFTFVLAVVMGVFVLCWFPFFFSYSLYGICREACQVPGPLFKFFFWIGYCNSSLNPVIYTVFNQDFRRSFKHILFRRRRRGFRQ
Experimental: as §1, §2, §3, §4

[3] = molecular target: I2B; assay: Receptor binding, I2B
[4] = molecular target: I2A; assay: Receptor binding, I2A
[5] = molecular target: α1; assay: Receptor binding, [3H]prazosin, human cerebral cortex membranes (HCC); conditions: 22° C., 30 min
Experimental: Tissue preparation: Membrane suspensions were prepared from human cerebral cortex ([…], for α1 receptors) obtained from the UCI Organ and Tissue Bank. Briefly, tissues (1 g) were homogenized in 25 mL of ice-cold 5 mM Tris, pH 7.4 with a Polytron homogenizer for 30 sec at setting #7, and centrifuged for
10-12 minutes at 300× g at 4° C. The supernatant was filtered through 2 layers of gauze and diluted 1:2 with 50 mM Tris-HCl buffer, pH 7.4, then centrifuged at 49,000× g for 20 minutes. The pellet fraction was washed 3 times (resuspended in Tris-HCl buffer and centrifuged for 20 minutes; at 49,000× g). The pellet was then stored at -80° C. until the binding assay.
as §2, §3, §4

[6] = rabbit
[7] = [3H]rauwolscine, CHO-RNG, 22° C., 30 min, read-out: Ki α2B

Row | SMILES | Ki [1, 7] [nM] | Ki [2] [nM] | Ki [3] [nM] | Ki [4] [nM] | Ki [5] [nM] | Ki [1] [nM] | IOP of the untreated eye (systemic effect) ([6]; in vivo) | lowering of intraocular pressure (IOP), treated eye ([6]; single drop of 0.001%, topical, one eye)
1 | Cc1c(NC2=NCCN2)ccc2c1NCCN2 [Example 8] | 139 | 124 | 10000 | 100000 | 8720 | – | – | –
2 | c1cc2c(cc1NC1=NCCN1)NCCN2 [Example 7] | 262 | 463 | 10000 | 100000 | 5100 | – | – | –
3 | c1cc2c(cc1NC1=NCCN1)OCCO2 [Example 11] | – | – | 2030 | 1080 | 2400 | 28 | – | –
4 | Nc1cc(Cl)c(NC2=NCCN2)c(Cl)c1 [Example 3] | 4.8 | 21 | 38600 | 64800 | 181 | – | – | –
5 | Cc1c(NC2=NCCN2)ccc2c1OCCO2 [Example 13] | – | 3.5 | 1220 | 100000 | 129 | 4 | – | –
6 | Brc1c(NC2=NCCN2)ccc2c1NCCN2 [Example 9] | 47 | 120 | 4590 | 7560 | 1120 | – | – | –
7 | Cc1ccccc1NC1=NCCN1 [Example 1] | – | 70 | – | 1200 | 5030 | 49 | – | –
8 | COc1ccc(NC2=NCCN2)c(C)c1OC [Example 12] | 196 | 93 | 507 | 100000 | 1450 | – | – | –

Now from value to compound, other results behind:

Row | Ki [1, 7] [nM] | Ki [2] [nM] | Ki [3] [nM] | Ki [4] [nM] | Ki [5] [nM] | SMILES | Ki [1] [nM] | IOP of the untreated eye (systemic effect) ([6]; in vivo) | lowering of intraocular pressure (IOP), treated eye ([6]; single drop of 0.001%, topical, one eye)
9 | 194 | 293 | 3260 | 24800 | 6610 | CC1CNc2c(ccc(NC3=NCCN3)c2Br)N1 (stereo not shown) [Example 10] | – | – | –
10 | 241 | 134 | – | – | 2260 | Cc1c(NC2=NCCN2)ccc2c1NC(=O)CO2 [Example 15] | – | – | –
11 | 221 | 88 | 870 | 100000 | 4180 | COc1c(C(C)(C)C)cc(C)c(Nc2ncc[nH]2)c1C [Example 22] | – | – | –
12 | 895 | 457 | – | – | 11300 | Cc1c(O)cccc1Nc1ncc[nH]1 [Example 20] | – | – | –
13 | 30 | 8.9 | 12100 | 100000 | 473 | Cc1c(NC2=NCCN2)ccc2c1NCCO2 [Example 16] | – | without lowering IOP in the untreated eye | greater effect in lowering IOP than clonidine
14 | 295 | 180 | 13 | 141 | 5210 | Cc1cccc(Nc2ncc[nH]2)c1C [Example 18] | – | – | –
15 | 842 | – | 6520 | 4500 | 8990 | O=C1COc2ccc(NC3=NCCN3)cc2N1 [Example 14] | – | – | –
